Experimental data from US9266908B2, “Inhibitors of arginase and their therapeutic applications” (MARS, INCORPORATED, priority 2011, dated 2016).

Tests used:
human-Arginase-1 = target: T1, human-Arginase-1 (Homo sapiens, UniProt P05089); test: Urea production in CHOK cells stably transfected with human-Arginase-1; format: cell-based; conditions: IC50 class, 5 mM arginine, 24 hours, read-out: CHOK Cell
T1 construct: expressed in transfected cells; host or cells: CHOK cells
T1 sequence (P05089 1-322): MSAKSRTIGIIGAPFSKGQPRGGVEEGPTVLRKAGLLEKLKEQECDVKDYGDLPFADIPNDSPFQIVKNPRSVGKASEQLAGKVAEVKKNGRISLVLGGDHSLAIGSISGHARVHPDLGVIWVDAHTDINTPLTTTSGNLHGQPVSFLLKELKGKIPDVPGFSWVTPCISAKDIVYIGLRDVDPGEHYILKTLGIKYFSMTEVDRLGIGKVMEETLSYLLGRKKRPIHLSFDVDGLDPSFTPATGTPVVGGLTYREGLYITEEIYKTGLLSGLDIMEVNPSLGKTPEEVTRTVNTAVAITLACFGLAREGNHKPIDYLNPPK
Protocol: Table 3 also provides CHOK cell based IC50 values for illustrative arginase inhibitors. IC50 values were determined by measuring the production of urea in CHOK cells stably transfected with human-Arginase-1.
Briefly, CHOK cells were stably transfected with human-arginase-1. To determiner the IC50 values for compounds in accordance with the present invention, parental CHOK cells and arginase-1 stably transfected cells were plated in a 96 well plate. Cells were plated using 200 μl of complete growth medium and incubated overnight at 37° C.
Media from each of the wells containing cells was first removed and growth media supplemented with arginine at a concentration of 5 mM was added to each well. The test compounds were dissolved in PBS buffer to the desired concentration and added to appropriate wells. The plate was then incubated at 37° C. for 24 hours. After 24 hours the plates were spun down at 3000 RPM for 5 min and 50 μl of the media were transferred to a new plate.
An aqueous solution of o-phthaldehyde, Brij, sulfuric acid, primaquine diphosphate and boric acid was added to each well and the plate was incubated for 10-15 minutes. The urea concentration in each well was determined by measuring the optical density at 520-530 nanometers using a standard curve. The IC50 values were calculated by measuring urea production at various concentrations of the inventive arginase inhibitors after subtracting the value related to the concentration of urea in control wells.

arginase II (ARG II) = target: T2, arginase II (ARG II) (Homo sapiens, UniProt P78540); test: Inhibition of arginase II, spectrophotometric urea assay at 530 nm
T2 sequence (P78540 23-354): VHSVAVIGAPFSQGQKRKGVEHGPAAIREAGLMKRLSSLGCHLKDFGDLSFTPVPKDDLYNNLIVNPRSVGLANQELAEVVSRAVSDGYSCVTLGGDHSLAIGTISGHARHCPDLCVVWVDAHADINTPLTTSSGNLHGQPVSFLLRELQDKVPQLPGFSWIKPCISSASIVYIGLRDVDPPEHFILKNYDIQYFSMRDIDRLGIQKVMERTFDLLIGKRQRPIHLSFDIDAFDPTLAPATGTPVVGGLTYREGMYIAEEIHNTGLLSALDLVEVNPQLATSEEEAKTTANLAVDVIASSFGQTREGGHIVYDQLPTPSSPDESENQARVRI
Protocol: (§1) Inhibition of arginase I (ARG I) and arginase II (ARG II) by the inventive compounds is followed spectrophotometrically at 530 nm. […] Solutions of arginase I and II are prepared in 100 mM sodium phosphate buffer, pH 7.4 containing 1 mg/ml of OVA to give an arginase stock solution at a final concentration of 100 ng/ml.
(§2) To each well of a 96-well microtiter plate is add 40 μl of enzyme, 10 μl of an inventive compound and 10 μl of enzyme substrate (L-arginine+ manganese sulfate). For wells that are used as positive controls, only the enzyme and its substrate are added, while wells used as negative controls contain only manganese sulfate.
(§3) After incubating the microtiter plate at 37° C. for 60 minutes, 150 μl of a urea reagent obtained by combining equal proportions (1:1) of reagents A and B is added to each well of the microtiter plate to stop the reaction. The urea reagent is made just before use by combining Reagent A (10 mM o-phthaldialdehyde, and 0.4% polyoxyethylene (23) lauryl ether (w/v) in 1.8 M sulfuric acid) with Reagent B (1.3 mM primaquine diphosphate, 0.4% polyoxyethylene (23) lauryl ether (w/v), 130 mM boric acid in 3.6 M sulfuric acid). After quenching the reaction mixture, the microtiter plate is allowed to stand for an additional 10 minutes at room temperature to allow color development. […] The normalized OD is then used to generate a dose-response curve by plotting the normalized OD values against log [concentration] and using regression analysis to compute the IC50 values.

human arginase I (ARG I) = target: T3, human arginase I (ARG I) (Homo sapiens, UniProt P05089); test: Inhibition of arginase I, spectrophotometric urea assay at 530 nm
T3 sequence (P05089 1-322): T1 sequence (P05089 1-322)
Protocol: as §1, §2, §3

NC(CCCCB(O)O)(C(=O)O)[C@H]1C[C@@H](NCc2ccc(F)c3ccccc23)C1 (stereo partly drawn) [Example 10, (S)-2-amino-6-borono-2-((1s,3R)-3-((4-fluoronaphthalen-1-yl)methylamino)cyclobutyl)hexanoic acid]
IC50 (human-Arginase-1): 1000 to 25000 nM | IC50 (arginase II (ARG II)): 0.1 to 25 nM | IC50 (human arginase I (ARG I)): 0.1 to 25 nM

NC(CCCCB(O)O)(C(=O)O)[C@H]1C[C@@H](NCc2cccc3c(F)cccc23)C1 (stereo partly drawn) [Example 11, (S)-2-amino-6-borono-2-((1s,3R)-3-((5-fluoronaphthalen-1-yl)methylamino)cyclobutyl)hexanoic acid]
IC50 (human-Arginase-1): 1000 to 25000 nM | IC50 (arginase II (ARG II)): 26 to 100 nM | IC50 (human arginase I (ARG I)): 0.1 to 25 nM

NC(CCCCB(O)O)(C(=O)O)[C@H]1C[C@@H](NCc2c3ccccc3cc3ccccc23)C1 (stereo partly drawn) [Example 12, (S)-2-amino-2-((1s,3R)-3-(anthracen-9-ylmethylamino)cyclobutyl)-6-boronohexanoic acid]
IC50 (human-Arginase-1): 26000 to 100000 nM | IC50 (arginase II (ARG II)): 0.1 to 25 nM | IC50 (human arginase I (ARG I)): 26 to 100 nM

NC(CCCCB(O)O)(C(=O)O)[C@H]1C[C@@H](NCc2ccccc2N2CCOCC2)C1 (stereo partly drawn) [Example 13, (S)-2-amino-6-borono-2-((1s,3R)-3-(2-morpholinobenzylamino)cyclobutyl)hexanoic acid]
IC50 (human-Arginase-1): 26000 to 100000 nM | IC50 (arginase II (ARG II)): 26 to 100 nM | IC50 (human arginase I (ARG I)): 26 to 100 nM

NC(CCCCB(O)O)(C(=O)O)[C@H]1C[C@@H](NCc2ccc3c(c2)CCO3)C1 (stereo partly drawn) [Example 15, (S)-2-amino-6-borono-2-((1s,3R)-3-((2,3-dihydrobenzofuran-5-yl)methylamino)cyclobutyl)hexanoic acid]
IC50 (human-Arginase-1): 1000 to 25000 nM | IC50 (arginase II (ARG II)): 26 to 100 nM | IC50 (human arginase I (ARG I)): 26 to 100 nM

NC(CCCCB(O)O)(C(=O)O)[C@H]1C[C@@H](NCc2ccc(-c3ccc(Cl)c(Cl)c3)cc2)C1 (stereo partly drawn) [Example 16, (S)-2-amino-6-borono-2-((1s,3R)-3-((3′,4′-dichlorobiphenyl-4-yl)methylamino)cyclobutyl)hexanoic acid]
IC50 (human-Arginase-1): 1000 to 25000 nM | IC50 (arginase II (ARG II)): 0.1 to 25 nM | IC50 (human arginase I (ARG I)): 0.1 to 25 nM

NC(CCCCB(O)O)(C(=O)O)[C@H]1C[C@@H](NCc2ccc(-c3ccc(Cl)cc3)cc2)C1 (stereo partly drawn) [Example 17, (S)-2-amino-6-borono-2-((1s,3R)-3-((4′-chlorobiphenyl-4-yl)methylamino)cyclobutyl)hexanoic acid]
IC50 (human-Arginase-1): 1000 to 25000 nM | IC50 (arginase II (ARG II)): 0.1 to 25 nM | IC50 (human arginase I (ARG I)): 0.1 to 25 nM

NC(CCCCB(O)O)(C(=O)O)[C@H]1C[C@@H](NCc2ccc(-c3ccc(C(F)(F)F)cc3)cc2)C1 (stereo partly drawn) [Example 18, (S)-2-amino-6-borono-2-((1s,3R)-3-((4′-(trifluoromethyl)biphenyl-4-yl)methylamino)cyclobutyl)hexanoic acid]
IC50 (human-Arginase-1): 1000 to 25000 nM | IC50 (arginase II (ARG II)): 0.1 to 25 nM | IC50 (human arginase I (ARG I)): 0.1 to 25 nM

NC(CCCCB(O)O)(C(=O)O)[C@H]1C[C@@H](NCc2ccc(-c3ccc(F)cc3)cc2)C1 (stereo partly drawn) [Example 19, (S)-2-amino-6-borono-2-((1s,3R)-3-((4′-fluorobiphenyl-4-yl)methylamino)cyclobutyl)hexanoic acid]
IC50 (human-Arginase-1): 26000 to 100000 nM | IC50 (arginase II (ARG II)): 26 to 100 nM | IC50 (human arginase I (ARG I)): 0.1 to 25 nM

NC(CCCCB(O)O)(C(=O)O)[C@H]1C[C@@H](NCc2ccc(Oc3ccc(Cl)cc3)cc2)C1 (stereo partly drawn) [Example 21, (S)-2-amino-6-borono-2-((1s,3R)-3-(4-(4-chlorophenoxy)benzylamino)cyclobutyl)hexanoic acid]
IC50 (human-Arginase-1): 26000 to 100000 nM | IC50 (arginase II (ARG II)): 0.1 to 25 nM | IC50 (human arginase I (ARG I)): 0.1 to 25 nM

NC(CCCCB(O)O)(C(=O)O)[C@H]1C[C@@H](NCc2ccccc2-c2ccc(Cl)cc2)C1 (stereo partly drawn) [Example 22, (S)-2-amino-6-borono-2-((1s,3R)-3-((4′-chlorobiphenyl-2-yl)methylamino)cyclobutyl)hexanoic acid]
IC50 (human-Arginase-1): 26000 to 100000 nM | IC50 (arginase II (ARG II)): 26 to 100 nM | IC50 (human arginase I (ARG I)): 26 to 100 nM

NC(CCCCB(O)O)(C(=O)O)[C@H]1C[C@@H](NCc2ccc(-c3ccccc3)nc2)C1 (stereo partly drawn) [Example 23, (S)-2-amino-6-borono-2-((1s,3R)-3-((6-phenylpyridin-3-yl)methylamino)cyclobutyl)hexanoic acid]
IC50 (human-Arginase-1): 1000 to 25000 nM | IC50 (arginase II (ARG II)): 0.1 to 25 nM | IC50 (human arginase I (ARG I)): 26 to 100 nM

NC(CCCCB(O)O)(C(=O)O)[C@H]1C[C@@H](NCc2ccc3c(c2)Cc2ccccc2-3)C1 (stereo partly drawn) [Example 24, (S)-2-((1s,3R)-3-((9H-fluoren-2-yl)methylamino)cyclobutyl)-2-amino-6-boronohexanoic acid]
IC50 (human-Arginase-1): 26000 to 100000 nM | IC50 (arginase II (ARG II)): 0.1 to 25 nM | IC50 (human arginase I (ARG I)): 0.1 to 25 nM

NC(CCCCB(O)O)(C(=O)O)[C@H]1C[C@@H](NCc2ccccc2-c2ccc(C(F)(F)F)cc2)C1 (stereo partly drawn) [Example 25, (S)-2-amino-6-borono-2-((1s,3R)-3-((4′-(trifluoromethyl)biphenyl-2-yl)methylamino)cyclobutyl)hexanoic acid]
IC50 (human-Arginase-1): 26000 to 100000 nM | IC50 (arginase II (ARG II)): 26 to 100 nM | IC50 (human arginase I (ARG I)): 26 to 100 nM

NC(CCCCB(O)O)(C(=O)O)[C@H]1C[C@@H](NCc2ccc(C3CCCCC3)cc2)C1 (stereo partly drawn) [Example 26, (S)-2-amino-6-borono-2-((1s,3R)-3-(4-cyclohexylbenzylamino)cyclobutyl)hexanoic acid]
IC50 (human-Arginase-1): 26000 to 100000 nM | IC50 (arginase II (ARG II)): 26 to 100 nM | IC50 (human arginase I (ARG I)): 0.1 to 25 nM

NC(CCCCB(O)O)(C(=O)O)[C@H]1C[C@@H](N(Cc2ccccc2)Cc2ccccc2)C1 (stereo partly drawn) [Example 27, (S)-2-amino-6-borono-2-((1s,3R)-3-(dibenzylamino)cyclobutyl)hexanoic acid]
IC50 (human-Arginase-1): 26000 to 100000 nM | IC50 (arginase II (ARG II)): 501 to 1500 nM | IC50 (human arginase I (ARG I)): 101 to 500 nM

CNC(CCCCB(O)O)(CCN1Cc2ccccc2C1)C(=O)O (stereo not drawn) [Example 30, 6-borono-2-(2-(isoindolin-2-yl)ethyl)-2-(methylamino)hexanoic acid]
IC50 (human-Arginase-1): 1000 to 25000 nM | IC50 (arginase II (ARG II)): 101 to 500 nM | IC50 (human arginase I (ARG I)): 101 to 500 nM

CNC(CCCCB(O)O)(CCN1CCC(C)CC1)C(=O)O (stereo not drawn) [Example 33, 6-borono-2-(methylamino)-2-(2-(4-methylpiperidin-1-yl)ethyl)hexanoic acid]
IC50 (human-Arginase-1): 26000 to 100000 nM | IC50 (arginase II (ARG II)): 101 to 500 nM | IC50 (human arginase I (ARG I)): 101 to 500 nM

CNC(CCCCB(O)O)(CCNCc1ccc(Cl)c(Cl)c1)C(=O)O (stereo not drawn) [Example 35, 6-borono-2-(2-(3,4-dichlorobenzylamino)ethyl)-2-(methylamino)hexanoic acid]
IC50 (human-Arginase-1): 26000 to 100000 nM | IC50 (arginase II (ARG II)): 101 to 500 nM | IC50 (human arginase I (ARG I)): 101 to 500 nM

CNC(CCCCB(O)O)(CCN1CCC(c2ccccc2)CC1)C(=O)O (stereo not drawn) [Example 36, 6-borono-2-(methylamino)-2-(2-(4-phenylpiperidin-1-yl)ethyl)hexanoic acid]
IC50 (human-Arginase-1): 1000 to 25000 nM | IC50 (arginase II (ARG II)): 101 to 500 nM | IC50 (human arginase I (ARG I)): 101 to 500 nM

NC(CCCCB(O)O)(CCCN1Cc2ccccc2C1)C(=O)O (stereo not drawn) [Example 39, 2-amino-6-borono-2-(3-(isoindolin-2-yl)propyl)hexanoic acid]
IC50 (human-Arginase-1): 1000 to 25000 nM | IC50 (arginase II (ARG II)): 101 to 500 nM | IC50 (human arginase I (ARG I)): 26 to 100 nM

NC(CCCCB(O)O)(CCCN1CCc2c(Cl)cccc2C1)C(=O)O (stereo not drawn) [Example 40, 2-amino-6-borono-2-(3-(5-chloro-3,4-dihydroisoquinolin-2(1H)-yl)propyl)hexanoic acid]
IC50 (human-Arginase-1): 1000 to 25000 nM | IC50 (arginase II (ARG II)): 101 to 500 nM | IC50 (human arginase I (ARG I)): 26 to 100 nM

NC(CCCCB(O)O)(CCCN1CCc2ccccc2C1)C(=O)O (stereo not drawn) [Example 41, 2-amino-6-borono-2-(3-(3,4-dihydroisoquinolin-2(1H)-yl)propyl)hexanoic acid]
IC50 (human-Arginase-1): 1000 to 25000 nM | IC50 (arginase II (ARG II)): 101 to 500 nM | IC50 (human arginase I (ARG I)): 101 to 500 nM

NC(CCCCB(O)O)(C(=O)O)[C@H]1CC[C@@H](NCc2ccc(-c3ccccc3)cc2)C1 (stereo partly drawn) [Example 44]
IC50 (human-Arginase-1): 26000 to 100000 nM | IC50 (arginase II (ARG II)): 26 to 100 nM | IC50 (human arginase I (ARG I)): 26 to 100 nM
